Where two headings read alike, the source gives them in different places.

One data set concerns OVCAR-3 cells. Put plainly: In vitro anti-proliferative activity assay in cancer cell line OVCAR-3 (CellTiter-Glo, 4- or 7-day). Particulars: Homo sapiens, OVCAR-3, 96 h, 4-day assay; read-out: OVCAR-3 cellular antiproliferation assay IC50. The class given is cell-based. (In general: In ATP-based viability assays light output follows the ATP content of the culture.)
Data set [1] in a line: Caco-2 permeation assay, bidirectional permeability. The class given is in vitro ADME. Particulars: human, Caco-2, pH 7.4, 5 μM, Papp(B-A)/Papp(A-B). A digest of the protocol: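 Bidirectional A→B and B→A transport of 5 μM compound in HBSS (10 mM HEPES, pH 7.4), receiver containing 2% BSA, 2 h at 37 °C on 14-day monolayers. Papp from LC-MS/MS peak areas; efflux ratio Papp(B-A)/Papp(A-B), plus recovery. Lucifer Yellow leakage <1% required for monolayer acceptance.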

The test system of data set [2] is human megakaryocyte (CFU-MK) progenitors from human bone marrow mononuclear cells. Briefly: Human megakaryocyte progenitor colony formation assay (CFU-MK). The class given is cell-based. Particulars: 336 h, 14 days culture, adjusted for binding to assay buffer, read-out: Free-fraction adjusted CFU-MK IC50.
The nature of data set [3]: Bone marrow concentration in 28 day OVCAR-3 xenograft study. The class given is in vivo, mice. Particulars: NOD SCID, mouse, 28 day study; for concentration at 6 h: read-out: Bone marrow concentration at 6 h post-last dose; for concentration at 24 h: read-out: Bone marrow concentration at 24 h post-last dose. As for the experimental part: On Day 28, tissues were collected from animals. About 30-60 μL of whole blood was collected into tubes containing EDTA anticoagulant, and plasma was harvested by centrifugation at 4,000 g×5 min and stored at −80° C. until analysis. Plasma analysis followed the same protocol as for the Day 1 plasma analysis. Additionally, the femurs of the mice were cut and put in pre-weighed tubes. The bone marrow was harvested by centriguation at 8,000 g×15 min. Then, the total weight of both the bone marrow and the tube was recorded. The bone marrow was stored at −80° C. until analysis.
Samples were collected from animals 6 h after the last dose of compound and at 24 h after the last dose of compound.

Another data set deals with KIF18A (Homo sapiens (Human), UniProt Q8NI77). Put plainly: KIF18A Biochemical Assay (ATPase, ADP-Glo). For orientation: ADP-Glo turns the ADP formed in a reaction into a luminescent signal.
Chain of KIF18A (Q8NI77 1-367): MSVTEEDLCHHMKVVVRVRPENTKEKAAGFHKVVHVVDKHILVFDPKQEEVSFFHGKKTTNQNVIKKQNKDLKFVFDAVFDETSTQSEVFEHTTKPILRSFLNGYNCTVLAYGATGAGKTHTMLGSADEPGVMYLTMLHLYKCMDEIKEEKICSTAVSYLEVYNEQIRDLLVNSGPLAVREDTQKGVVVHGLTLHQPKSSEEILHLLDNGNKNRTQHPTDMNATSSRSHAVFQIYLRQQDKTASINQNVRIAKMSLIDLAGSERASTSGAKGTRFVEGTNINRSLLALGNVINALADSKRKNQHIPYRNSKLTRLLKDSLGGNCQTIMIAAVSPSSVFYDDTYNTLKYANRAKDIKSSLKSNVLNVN
Chain of KIF18A (P02550 whole entry partner): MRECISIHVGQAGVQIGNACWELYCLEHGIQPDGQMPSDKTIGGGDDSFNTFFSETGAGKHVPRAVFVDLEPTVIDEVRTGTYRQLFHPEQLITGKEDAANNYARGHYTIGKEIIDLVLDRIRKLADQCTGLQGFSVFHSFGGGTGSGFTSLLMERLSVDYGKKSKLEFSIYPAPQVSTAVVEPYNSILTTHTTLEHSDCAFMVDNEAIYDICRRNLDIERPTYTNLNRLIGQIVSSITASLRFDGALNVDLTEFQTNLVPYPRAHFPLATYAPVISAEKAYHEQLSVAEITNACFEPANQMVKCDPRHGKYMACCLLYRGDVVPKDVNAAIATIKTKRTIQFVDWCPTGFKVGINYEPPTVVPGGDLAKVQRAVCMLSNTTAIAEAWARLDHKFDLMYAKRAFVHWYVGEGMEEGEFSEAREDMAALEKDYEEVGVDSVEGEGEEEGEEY
Chain of KIF18A (P02554 whole entry partner): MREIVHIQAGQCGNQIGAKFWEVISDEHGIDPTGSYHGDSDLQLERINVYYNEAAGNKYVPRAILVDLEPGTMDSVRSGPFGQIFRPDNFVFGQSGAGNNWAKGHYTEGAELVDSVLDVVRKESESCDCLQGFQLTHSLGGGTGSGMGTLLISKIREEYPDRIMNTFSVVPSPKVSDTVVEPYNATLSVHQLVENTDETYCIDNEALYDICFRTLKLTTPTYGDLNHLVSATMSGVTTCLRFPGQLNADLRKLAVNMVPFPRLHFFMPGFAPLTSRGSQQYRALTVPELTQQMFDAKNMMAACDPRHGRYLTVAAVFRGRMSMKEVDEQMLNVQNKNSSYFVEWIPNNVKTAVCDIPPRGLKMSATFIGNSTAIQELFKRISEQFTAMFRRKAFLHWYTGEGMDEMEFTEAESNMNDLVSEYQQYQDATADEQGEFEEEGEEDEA
A short description of data set [4]: Tolerability (body weight) in 28 day OVCAR-3 xenograft study. The class given is in vivo. To be noted: all concentrations dosed, 28 day treatment.
Data set [5] in a line: In vivo pharmacokinetic evaluation in mouse. Also noted: species or system female balb/c nude mice.

For `Cc1cc(NC(=O)c2ccc(NS(=O)(=O)CCO)cc2N2CC[C@@]3(C(F)F)C[C@H]3C2)nc(N2CCC(F)(F)CC2)n1` (single isomer, unassigned) [Example 29b], the IC50 is less than 100 nM with OVCAR-3 cells, 110 nM in data set [2] and less than 100 nM on KIF18A. Further, the efflux ratio at 2 h, 5 μM in data set [1] is not below 10. For the same molecule, the figures for the concentration at 6 h in data set [3] (10 mg/kg QD oral) and in data set [3] (30 mg/kg QD oral) were 2800 ng/g and 10500 ng/g, respectively. Moreover, the concentration at 24 h came to 210 ng/g in data set [3] (10 mg/kg QD oral) and 900 ng/g in data set [3] (30 mg/kg QD oral). The “Tolerability based on body weight” value in data set [4] is listed as “well tolerated”. Besides, the “IV Clearance” value in data set [5] (3 mg/kg IV) was determined as 3.3 mL/ming/kg. Moreover, in data set [5] (female, balb/c nude, plasma, 3 mg/kg IV, read-out: IV Vss), the Vd turned out to be 0.97 L/kg. The same molecule returned a Cmax in data set [5] (female, balb/c nude, plasma, 10 mg/kg PO) of 4700 ng/mL. For the same molecule, the half-life in data set [5] (female, balb/c nude, plasma, 10 mg/kg PO, read-out: PO T1/2 (converted)) was 3.7 h.

The efflux ratio is the permeability from basolateral to apical divided by that in the opposite direction, in the common usage. What is called Cmax is the maximum level reached in the sampled fluid or tissue.

(Values after patent US20250197428A1, “INHIBITORS OF KIF18A AND USES THEREOF” (ACCENT THERAPEUTICS, INC., priority 2022, published 2025).)
